In patent US5684222A (priority 1994, dated 1997):

Test system: TNFRp55+/+ mice
Conditions: mouse, in vivo

`N[C@H]1C(O)O[C@H](CO)[C@H](O)[C@@H]1O` (stereo partly drawn) [D-Gal, D-galactosamine] was tested, and the “TNFRp55 +/+ dead/group” value was 0/4.
